What all share (assay type): cell-based
The subject of experiment [1] is acetyl-SMC3 (Ac-SMC3). The experiment in a line: Ac-SMC3 level in HCT116 cells, Western blot. The conditions noted are these: 6 h. On the technique in general: In western blotting, separated proteins are transferred to a membrane and probed.
The target in the next experiment is T1, HDAC4 (Homo sapiens, UniProt P56524).
T1 construct: endogenous in cells; host or cells: Jurkat
In words: HDAC4 level in Jurkat cells, Western blot. The following applies: 6 h.

In a further experiment the target is T2, GSPT1 (Homo sapiens, UniProt P15170).
T2 construct: endogenous in cells; host or cells: Jurkat
The experiment in a line: GSPT1 level in Jurkat cells, Western blot. The following applies: 6 h.

In experiment [2] the test system is Jurkat cells. The experiment in a line: Cell death determination by flow cytometry (Hoechst 33342/PI), Jurkat. The following applies: 5 μM, 48 h. On the procedure:
Jurkat cells (5 × 10^5) were seeded on 6-well plates. The next day, cells were treated with indicated concentrations of compounds for 48 h. Cells were harvested after incubation, washed twice in cold PBS, centrifuged, and stained with 7 μM Hoechst 33342 and 2 μM of Propidium iodide (PI) sequentially, and then determined by NovoCyte Quanteon Flow Cytometer (Agilent Technologies, CA, USA). Cells stained only with Hoechst 33342 were counted as live cells, while cells stained with both Hoechst 33342 and PI were counted as dead cells.
(Flow cytometry measures light scatter and fluorescence of single cells or particles in a stream.)

The target of the next experiment is T3, HDAC6 (Homo sapiens, UniProt Q9UBN7).
T3 sequence (Q9UBN7 1-1215): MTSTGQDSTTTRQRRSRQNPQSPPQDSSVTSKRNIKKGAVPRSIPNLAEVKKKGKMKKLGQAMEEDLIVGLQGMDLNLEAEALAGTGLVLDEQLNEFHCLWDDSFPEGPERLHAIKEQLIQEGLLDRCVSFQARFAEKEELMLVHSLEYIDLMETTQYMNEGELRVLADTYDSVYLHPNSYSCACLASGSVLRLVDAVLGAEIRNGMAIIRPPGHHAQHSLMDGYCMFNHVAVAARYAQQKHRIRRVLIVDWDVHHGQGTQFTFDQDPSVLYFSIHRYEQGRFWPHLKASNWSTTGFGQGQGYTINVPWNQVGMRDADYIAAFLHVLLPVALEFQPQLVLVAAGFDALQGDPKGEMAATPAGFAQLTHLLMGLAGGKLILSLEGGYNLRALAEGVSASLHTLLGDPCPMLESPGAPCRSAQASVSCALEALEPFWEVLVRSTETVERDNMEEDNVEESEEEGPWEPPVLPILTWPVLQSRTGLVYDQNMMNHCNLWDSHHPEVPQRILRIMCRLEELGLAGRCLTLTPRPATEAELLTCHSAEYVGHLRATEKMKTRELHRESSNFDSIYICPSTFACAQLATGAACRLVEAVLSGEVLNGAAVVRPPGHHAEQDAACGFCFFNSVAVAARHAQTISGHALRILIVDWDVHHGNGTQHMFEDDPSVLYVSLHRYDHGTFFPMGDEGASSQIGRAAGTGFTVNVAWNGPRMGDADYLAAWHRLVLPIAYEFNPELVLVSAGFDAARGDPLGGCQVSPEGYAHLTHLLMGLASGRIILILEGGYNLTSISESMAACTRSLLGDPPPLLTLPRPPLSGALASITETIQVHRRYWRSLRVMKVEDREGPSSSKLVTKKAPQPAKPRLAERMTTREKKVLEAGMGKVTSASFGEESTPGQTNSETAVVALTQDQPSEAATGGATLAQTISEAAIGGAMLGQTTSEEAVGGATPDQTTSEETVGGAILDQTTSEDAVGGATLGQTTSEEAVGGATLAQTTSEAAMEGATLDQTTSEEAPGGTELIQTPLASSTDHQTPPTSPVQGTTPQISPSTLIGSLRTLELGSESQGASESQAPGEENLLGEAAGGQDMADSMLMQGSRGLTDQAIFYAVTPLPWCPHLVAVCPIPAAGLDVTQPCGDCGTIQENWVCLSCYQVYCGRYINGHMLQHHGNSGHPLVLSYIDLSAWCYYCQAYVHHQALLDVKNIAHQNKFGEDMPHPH
In words: HDAC6 level in Jurkat cells, Western blot. The following applies: 6 h. Set-up: endogenous in cells; host or cells: Jurkat.

For a further experiment, the target named is T4, IKZF3 (Homo sapiens, UniProt Q9UKT9).
T4 construct: endogenous in cells; host or cells: Jurkat
In words: IKZF3 level in Jurkat cells, Western blot. The conditions noted are these: 6 h.

Experiment [3] deals with HCT116 cells. In words: Lipid peroxidation detection (BODIPY 581/591 C11), HCT116. The conditions noted are these: 24 h, low micromolar concentrations. On the procedure:
Jurkat cells (5 × 10^5), HCT116 cells (3 × 10^5) and THP-1 cells (5 × 10^5) were seeded on 6-well plates. The next day, cells were treated with indicated concentrations of compounds for 24 or 48 h. Then, cells were stained with 1.3 μM of BODIPY 581/591 C11 (Invitrogen, D3861) for another 1 h at 37 °C. Later, cells were harvested and washed three times with ice-cold PBS, followed by resuspended in FACS buffer (1% BSA in PBS). Lipid peroxidation was determined by NovoCyte Quanteon Flow Cytometer (Agilent Technologies, CA, USA).

The next experiment concerns the target T5, IKZF1 (Homo sapiens, UniProt Q13422).
T5 construct: endogenous in cells; host or cells: Jurkat
In words: IKZF1 level in Jurkat cells, Western blot. The conditions noted are these: 6 h.

In experiment [4] the test system is acetyl-SMC3 (Ac-SMC3). The experiment in a line: Ac-SMC3 level in Jurkat cells, Western blot. The following applies: 6 h.
Experiment [5] has as its system HCT116 cells. In words: Apoptosis assay (Annexin V-FITC/PI flow cytometry), HCT116. Set-up: Q1 (flow cytometry quadrant) / Q2 (flow cytometry quadrant) / Q3 (flow cytometry quadrant) / Q4 (flow cytometry quadrant): unit not given here. The following applies: 48 h. On the procedure: (§1) The cell apoptosis assay was performed using eBioscience Annexin V-FITC/PI Apoptosis Detection Kit (Thermo Fisher Scientific, Carlsbad, CA, USA). Jurkat cells (5 × 10^5) and HCT116 cells (3 × 10^5) were treated with different concentrations of test compounds for 24 or 48 h. Cells were harvested after incubation, washed twice in cold PBS, centrifuged, and resuspended in 1X annexin-binding buffer. According to the manufacturer’s instructions, cells were incubated with Annexin V and Propidium iodide (PI) sequentially. All samples were analyzed by NovoCyte Quanteon Flow Cytometer (Agilent Technologies, CA, USA).

The test system of experiment [6] is Jurkat cells. In words: Apoptosis assay (Annexin V-FITC/PI flow cytometry), Jurkat. The conditions noted are these: 24 and 48 h. On the procedure:
as §1

T2 sequence (P15170 whole entry): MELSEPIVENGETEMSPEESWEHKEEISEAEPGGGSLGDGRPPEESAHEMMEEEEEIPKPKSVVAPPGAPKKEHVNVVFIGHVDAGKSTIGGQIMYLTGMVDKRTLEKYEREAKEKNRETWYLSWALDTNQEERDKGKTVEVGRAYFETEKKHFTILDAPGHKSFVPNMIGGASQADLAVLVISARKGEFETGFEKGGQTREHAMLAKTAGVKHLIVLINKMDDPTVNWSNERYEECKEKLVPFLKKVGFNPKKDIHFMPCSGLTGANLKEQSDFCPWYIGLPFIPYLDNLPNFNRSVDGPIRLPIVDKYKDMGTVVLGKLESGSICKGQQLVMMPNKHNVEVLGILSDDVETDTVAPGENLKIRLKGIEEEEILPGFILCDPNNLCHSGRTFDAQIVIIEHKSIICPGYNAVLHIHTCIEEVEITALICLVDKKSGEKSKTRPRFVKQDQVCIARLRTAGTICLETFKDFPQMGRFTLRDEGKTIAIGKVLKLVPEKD
T1 sequence (P56524 whole entry): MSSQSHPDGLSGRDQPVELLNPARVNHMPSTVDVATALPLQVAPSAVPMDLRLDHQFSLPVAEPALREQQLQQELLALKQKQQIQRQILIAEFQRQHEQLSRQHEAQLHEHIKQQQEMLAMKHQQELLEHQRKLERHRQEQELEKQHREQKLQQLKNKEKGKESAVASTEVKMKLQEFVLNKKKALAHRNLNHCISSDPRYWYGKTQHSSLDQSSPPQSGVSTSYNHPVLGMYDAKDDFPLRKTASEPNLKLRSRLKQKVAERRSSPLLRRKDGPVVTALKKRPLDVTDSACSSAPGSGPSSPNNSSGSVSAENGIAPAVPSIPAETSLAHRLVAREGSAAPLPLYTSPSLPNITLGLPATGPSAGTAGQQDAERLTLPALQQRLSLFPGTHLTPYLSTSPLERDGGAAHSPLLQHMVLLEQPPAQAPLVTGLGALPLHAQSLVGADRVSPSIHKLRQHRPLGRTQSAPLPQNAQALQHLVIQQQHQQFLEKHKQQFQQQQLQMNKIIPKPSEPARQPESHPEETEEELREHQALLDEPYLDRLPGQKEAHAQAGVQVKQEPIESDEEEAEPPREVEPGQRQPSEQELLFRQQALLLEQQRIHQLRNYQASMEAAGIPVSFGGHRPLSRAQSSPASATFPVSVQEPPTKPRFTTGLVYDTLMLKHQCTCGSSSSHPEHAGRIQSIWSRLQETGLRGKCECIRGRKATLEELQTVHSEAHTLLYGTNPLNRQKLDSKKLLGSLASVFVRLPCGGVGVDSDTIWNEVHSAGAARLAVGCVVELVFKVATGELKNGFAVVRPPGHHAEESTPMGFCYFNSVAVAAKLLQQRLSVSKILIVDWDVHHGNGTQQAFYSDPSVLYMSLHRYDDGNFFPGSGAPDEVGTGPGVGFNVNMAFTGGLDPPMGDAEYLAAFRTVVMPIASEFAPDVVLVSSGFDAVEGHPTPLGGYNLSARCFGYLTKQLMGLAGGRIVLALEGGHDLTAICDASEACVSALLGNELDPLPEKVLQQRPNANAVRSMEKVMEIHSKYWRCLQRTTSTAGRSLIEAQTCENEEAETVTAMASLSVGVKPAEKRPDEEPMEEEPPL
T4 sequence (Q9UKT9 whole entry): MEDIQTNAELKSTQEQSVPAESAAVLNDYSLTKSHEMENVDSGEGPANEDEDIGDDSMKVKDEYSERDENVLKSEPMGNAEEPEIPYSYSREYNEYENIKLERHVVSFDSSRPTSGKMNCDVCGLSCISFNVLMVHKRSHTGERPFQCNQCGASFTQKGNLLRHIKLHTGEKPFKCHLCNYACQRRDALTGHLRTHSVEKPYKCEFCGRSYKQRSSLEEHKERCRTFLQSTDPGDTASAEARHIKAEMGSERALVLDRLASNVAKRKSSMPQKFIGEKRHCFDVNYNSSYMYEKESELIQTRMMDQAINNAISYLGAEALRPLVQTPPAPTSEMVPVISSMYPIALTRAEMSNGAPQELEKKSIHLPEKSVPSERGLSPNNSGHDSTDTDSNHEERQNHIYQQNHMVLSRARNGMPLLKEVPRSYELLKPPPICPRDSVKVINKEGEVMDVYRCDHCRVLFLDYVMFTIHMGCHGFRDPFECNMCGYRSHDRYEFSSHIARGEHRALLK
T5 sequence (Q13422 whole entry): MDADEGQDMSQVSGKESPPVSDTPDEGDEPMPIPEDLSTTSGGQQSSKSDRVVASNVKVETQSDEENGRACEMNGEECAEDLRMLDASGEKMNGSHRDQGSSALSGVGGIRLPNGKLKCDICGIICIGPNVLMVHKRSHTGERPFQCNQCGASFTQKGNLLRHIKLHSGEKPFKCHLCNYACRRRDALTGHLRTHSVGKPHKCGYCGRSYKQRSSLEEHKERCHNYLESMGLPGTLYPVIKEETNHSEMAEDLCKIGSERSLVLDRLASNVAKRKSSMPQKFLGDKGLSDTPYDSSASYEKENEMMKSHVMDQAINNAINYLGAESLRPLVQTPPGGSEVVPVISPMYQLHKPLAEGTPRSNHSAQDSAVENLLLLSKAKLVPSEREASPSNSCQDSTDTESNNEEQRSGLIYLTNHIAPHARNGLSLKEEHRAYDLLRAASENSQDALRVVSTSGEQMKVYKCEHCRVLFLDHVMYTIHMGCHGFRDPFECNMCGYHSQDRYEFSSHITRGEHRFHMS

As to `CCCCCCNNC(=O)c1ccc(CNC(=O)CN2CCC(c3ccc(NC4CCC(=O)NC4=O)cc3)CC2)cc1` (stereo not drawn) [Z16, 2-(4-(4-((2,6-Dioxopiperidin-3-yl)amino)phenyl)piperidin-1-yl)-N-(4-(2-hexylhydrazine-1-carbonyl)benzyl)acetamide], the “concentration at which increased acetylation of SMC3 started” value in the experiment with acetyl-SMC3 (Ac-SMC3) [1] is listed as 40 nM. In addition, the “HDAC4 degradation (in words)” value on HDAC4 is on record as “no obvious”. On GSPT1, the “intracellular level of GSPT1 (in words)” value is reported as “did not significantly affect”. The molecule further showed a cell death induced with Jurkat cells [2] of 10%. At HDAC6, the “HDAC6 degradation (in words)” value is “no obvious”. At IKZF3, the “intracellular level of IKZF3 (in words)” value was “did not significantly affect”. Further, the “lipid peroxidation (in words)” value with HCT116 cells [3] is “induced lipid peroxidation in a dose-dependent manner”. For the same molecule, the “intracellular level of IKZF1 (in words)” value at IKZF1 is “did not significantly affect”. Moreover, in the experiment on acetyl-SMC3 (Ac-SMC3) [4], the “concentration at which increased acetylation of SMC3 started” value is “around 10 nM” and the “concentration leading to obvious increased Ac-SMC3” value was 0.01 µM. In the experiment on HCT116 cells [5] (1.1 μM), the “Q1 (flow cytometry quadrant)” value was 4.38, the “Q2 (flow cytometry quadrant)” value came to 5.93, the “Q3 (flow cytometry quadrant)” value was 10.3 and the “Q4 (flow cytometry quadrant)” value was found to be 79.4. Also, in the experiment with HCT116 cells [5] (3.3 μM), the “Q1 (flow cytometry quadrant)” value is given as 2.37, the “Q2 (flow cytometry quadrant)” value was 32.3, the “Q3 (flow cytometry quadrant)” value came to 44.6 and the “Q4 (flow cytometry quadrant)” value stood at 20.7. In addition, the apoptosis induced result in the experiment on HCT116 cells [5] (3.3 μM) was “over 70%”. In the experiment on HCT116 cells [5] (10 μM), the “Q1 (flow cytometry quadrant)” value was found to be 2.80, the “Q2 (flow cytometry quadrant)” value is listed as 57.3, the “Q3 (flow cytometry quadrant)” value came out at 24.9 and the “Q4 (flow cytometry quadrant)” value amounted to 15.1. Besides, in the experiment on Jurkat cells [6], the “induction of apoptosis (in words)” value is reported as “neither Z16 nor SAHA could effectively induce apoptosis”.

For the origin of these results see publication PMC11345830, “Exploration of Hydrazide-Based HDAC8 PROTACs for the Treatment of Hematological Malignancies and Solid Tumors” (Journal of Medicinal Chemistry, 2024).
